Measured values: patent US20250179103A1, “6-OXODECAHYDROPYRROLO[1,2-A][1,5]DIAZOCINE AND 6-OXODECAHYDRO-4H-PYRROLO[2,1-D][1,5]THIAZOCINE DERIVATIVES AS STAT3 AND STAT6 MODULATORS FOR THE TREATMENT OF CANCER AND INFLAMMATORY CONDITIONS” (Recludix Pharma, Inc., priority 2022, published 2025)

Assays:
[1] = target: T1, Recombinant STAT6 protein (STAT6(W123-T658)) (Homo sapiens, UniProt P42226); assay: STAT6 Fluorescence Polarization (FP) Assay; format: binding; settings: STAT6(W123-T658) 250 nM, probe 5-FAM-ApYKPFQDLI-NH2 2 nM, 45-minute incubation
T1 construct: Recombinant STAT6 protein (STAT6(W123-T658))
T1 sequence (P42226 123-658): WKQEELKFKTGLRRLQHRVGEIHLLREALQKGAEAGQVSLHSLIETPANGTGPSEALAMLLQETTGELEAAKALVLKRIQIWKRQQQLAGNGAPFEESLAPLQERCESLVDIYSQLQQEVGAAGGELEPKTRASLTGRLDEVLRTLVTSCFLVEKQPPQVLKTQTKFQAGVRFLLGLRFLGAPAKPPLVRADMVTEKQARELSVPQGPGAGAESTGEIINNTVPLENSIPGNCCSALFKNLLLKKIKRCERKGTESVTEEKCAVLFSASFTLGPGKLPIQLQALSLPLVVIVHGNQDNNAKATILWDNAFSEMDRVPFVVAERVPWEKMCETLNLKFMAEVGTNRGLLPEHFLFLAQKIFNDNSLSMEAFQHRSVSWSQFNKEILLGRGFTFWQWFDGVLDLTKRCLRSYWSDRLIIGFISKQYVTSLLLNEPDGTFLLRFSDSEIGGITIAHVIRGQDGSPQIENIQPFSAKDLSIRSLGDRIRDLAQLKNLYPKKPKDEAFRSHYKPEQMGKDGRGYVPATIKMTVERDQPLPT
Method in brief: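 Displacement of a fluorescent phosphotyrosine peptide (5-FAM-ApYKPFQDLI-NH2, 2 nM) from STAT6(W123-T658) (250 nM), 1% DMSO, pH 7.4 HEPES buffer. After 45 min at room temperature, polarization (mP) was plotted versus log compound concentration and fitted by nonlinear regression to give IC50.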

[2] = target: T2, Recombinant STAT3 protein (STAT3(G127-I722)) (Homo sapiens, UniProt P40763); assay: STAT3 Fluorescence Polarization (FP) Assay; format: binding; settings: STAT3(G127-I722) 25 nM, probe 5-FAM-GpYLPQTV-NH2 2 nM, 45-minute incubation
T2 construct: Recombinant STAT3 protein (STAT3(G127-I722))
Method in brief: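 Fluorescence polarization after a 45-min room-temperature incubation measured compound displacement of a 2 nM fluorescein-labelled phosphotyrosine peptide (5-FAM-GpYLPQTV-NH2) from 25 nM recombinant STAT3(G127-I722). Buffer was 10 mM HEPES pH 7.4 with 1% DMSO final. IC50s were fitted by nonlinear regression of mP against log concentration.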

T2 sequence (P40763 127-722): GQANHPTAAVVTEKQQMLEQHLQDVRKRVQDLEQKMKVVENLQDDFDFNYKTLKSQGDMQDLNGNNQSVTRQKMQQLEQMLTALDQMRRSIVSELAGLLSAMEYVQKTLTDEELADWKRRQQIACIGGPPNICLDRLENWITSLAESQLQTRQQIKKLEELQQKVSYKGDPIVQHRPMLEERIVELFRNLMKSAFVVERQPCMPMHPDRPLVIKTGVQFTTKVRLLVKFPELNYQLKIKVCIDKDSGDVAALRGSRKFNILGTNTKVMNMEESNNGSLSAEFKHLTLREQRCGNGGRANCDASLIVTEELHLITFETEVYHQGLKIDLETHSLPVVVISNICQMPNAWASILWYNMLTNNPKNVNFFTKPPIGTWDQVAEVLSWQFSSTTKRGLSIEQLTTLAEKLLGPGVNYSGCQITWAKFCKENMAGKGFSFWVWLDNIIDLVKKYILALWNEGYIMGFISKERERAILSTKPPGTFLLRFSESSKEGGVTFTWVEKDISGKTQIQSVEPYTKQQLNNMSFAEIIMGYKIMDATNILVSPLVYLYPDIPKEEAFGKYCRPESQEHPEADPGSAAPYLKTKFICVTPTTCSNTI

Row | IC50 [1] [µM] | IC50 [2] [µM] | Compound
1 | 0.3 to 3 | > 10 | CC(=O)N1CC[C@H]2CC[C@@H](C(=O)N(C)c3ccccc3)N2C(=O)[C@@H](NC(=O)c2cc3cc(C(F)P(=O)(O)O)ccc3s2)C1 (stereo partly drawn) [Compound 22, ((2-(((5S,8S,10aR)-3-acetyl-8-(methyl(phenyl)carbamoyl)-6-oxodecahydropyrrolo[1,2-a][1,5]diazocin-5-yl)carbamoyl)benzo[b]thiophen-5-yl)fluoromethyl)phosphonic acid]
2 | 0.3 to 3 | 1 to 10 | CCC(=O)N(C)[C@@H]1CCN(C(=O)[C@@H]2CC[C@@H]3CCN(C(C)=O)C[C@H](NC(=O)c4cc5cc(C(F)(F)P(=O)(O)O)ccc5[nH]4)C(=O)N32)C1 [Compound 23, ((2-(((5S,8S,10aR)-3-acetyl-8-((R)-3-(N-methylpropionamido)pyrrolidine-1-carbonyl)-6-oxodecahydropyrrolo[1,2-a][1,5]diazocin-5-yl)carbamoyl)-1H-indol-5-yl)difluoromethyl)phosphonic acid]
3 | 0.3 to 3 | 0.1 to 1 | CC(=O)N1CC(NC(=O)[C@@H]2CC[C@@H]3CCN(C(C)=O)C[C@H](NC(=O)c4cc5cc(C(F)(F)P(=O)(O)O)ccc5[nH]4)C(=O)N32)C1 [Compound 24, ((2-(((5S,8S,10aR)-3-acetyl-8-((1-acetylazetidin-3-yl)carbamoyl)-6-oxodecahydropyrrolo[1,2-a][1,5]diazocin-5-yl)carbamoyl)-1H-indol-5-yl)difluoromethyl)phosphonic acid]
4 | 3 to 30 | > 10 | CCC(=O)NCCCN(C)C(=O)[C@@H]1CC[C@@H]2CCN(C(C)=O)C[C@H](NC(=O)/C=C(\C)c3ccc(C(F)(F)P(=O)(O)O)cc3)C(=O)N21 [Compound 25, ((4-((E)-4-(((5S,8S,10aR)-3-acetyl-8-(methyl(3-propionamidopropyl)carbamoyl)-6-oxodecahydropyrrolo[1,2-a][1,5]diazocin-5-yl)amino)-4-oxobut-2-en-2-yl)phenyl)difluoromethyl)phosphonic acid]
5 | > 30 | > 10 | CCC(=O)NCCCN(C)C(=O)[C@@H]1CC[C@@H]2CCN(C(C)=O)C[C@H](NC(=O)/C=C/c3ccc(C(F)(F)P(=O)(O)O)cc3)C(=O)N21 [Compound 26, ((4-((E)-3-(((5S,8S,10aR)-3-acetyl-8-(methyl(3-propionamidopropyl)carbamoyl)-6-oxodecahydropyrrolo[1,2-a][1,5]diazocin-5-yl)amino)-3-oxoprop-1-en-1-yl)phenyl)difluoromethyl)phosphonic acid]
6 | 0.3 to 3 | 1 to 10 | CCC(=O)NCCCN(C)C(=O)[C@@H]1CC[C@@H]2CCN(C(C)=O)C[C@H](NC(=O)c3cc4cc(C(F)(F)P(=O)(O)O)ccc4[nH]3)C(=O)N21 [Compound 28, ((2-(((5S,8S,10aR)-3-acetyl-8-(methyl(3-propionamidopropyl)carbamoyl)-6-oxodecahydropyrrolo[1,2-a][1,5]diazocin-5-yl)carbamoyl)-1H-indol-5-yl)difluoromethyl)phosphonic acid]
7 | 0.3 to 3 | 1 to 10 | CC(=O)N1CC[C@H]2CC[C@@H](C(=O)N(C)C)N2C(=O)[C@@H](NC(=O)c2cc3cc(C(F)(F)P(=O)(O)O)ccc3[nH]2)C1 [Compound 29, ((2-(((5S,8S,10aR)-3-acetyl-8-(dimethylcarbamoyl)-6-oxodecahydropyrrolo[1,2-a][1,5]diazocin-5-yl)carbamoyl)-1H-indole-5-yl)difluoromethyl)phosphonic acid]
8 | 0.3 to 3 | 1 to 10 | CC(=O)N1CC[C@H]2CC[C@@H](C(=O)N(C)c3ccccc3)N2C(=O)[C@@H](NC(=O)c2cc3cc(C(F)(F)P(=O)(O)O)ccc3[nH]2)C1 [Compound 30]
9 | 0.3 to 3 | 1 to 10 | CC(=O)N1CC[C@H]2CC[C@@H](C(=O)N[C@H]3CCC[C@H]3N)N2C(=O)[C@@H](NC(=O)c2cc3cc(C(F)(F)P(=O)(O)O)ccc3[nH]2)C1 [Compound 31, ((2-(((5S,8S,10aR)-3-acetyl-8-(((1S,2R)-2-aminocyclopentyl)carbamoyl)-6-oxodecahydropyrrolo[1,2-a][1,5]diazocin-5-yl)carbamoyl)-1H-indol-5-yl)difluoromethyl)phosphonic acid]
10 | 3 to 30 | 1 to 10 | CC(=O)N[C@H]1CCC[C@@H]1NC(=O)[C@@H]1CC[C@@H]2CCN(C(C)=O)C[C@H](NC(=O)c3cc4cc(C(F)(F)P(=O)(O)O)ccc4[nH]3)C(=O)N21 [Compound 32, ((2-(((5S,8S,10aR)-8-(((1S,2S)-2-acetamidocyclopentyl)carbamoyl)-3-acetyl-6-oxodecahydropyrrolo[1,2-a][1,5]diazocin-5-yl)carbamoyl)-1H-indol-5-yl)difluoromethyl)phosphonic acid]
11 | 3 to 30 | 1 to 10 | CCN(C)CCCN(C)C(=O)[C@@H]1CC[C@@H]2CCN(C(C)=O)C[C@H](NC(=O)c3cc4cc(C(F)(F)P(=O)(O)O)ccc4[nH]3)C(=O)N21 [Compound 33, ((2-(((5S,8S,10aR)-3-acetyl-8-((3-(ethyl(methyl)amino)propyl)(methyl)carbamoyl)-6-oxodecahydropyrrolo[1,2-a][1,5]diazocin-5-yl)carbamoyl)-1H-indol-5-yl)difluoromethyl)phosphonic acid]
12 | 0.3 to 3 | 0.1 to 1 | CCC(=O)N1CC[C@@H](NC(=O)[C@@H]2CC[C@@H]3CCN(C(C)=O)C[C@H](NC(=O)c4cc5cc(C(F)(F)P(=O)(O)O)ccc5[nH]4)C(=O)N32)C1 [Compound 34, ((2-(((5S,8S,10aR)-3-aceytl-6-oxo-8-(((R)-1-propionylpyrrolidin-3-yl)carbamoyl)decahydropyrrolo[1,2-a][1,5]diazocin-5-yl)carbamoyl)-1H-indol-5-yl)difluoromethyl)phosphonic acid]
13 | 0.3 to 3 | 1 to 10 | CC(=O)N1CC[C@H]2CC[C@@H](C(=O)N3CCN(C(=O)OCc4ccccc4)CC3)N2C(=O)[C@@H](NC(=O)c2cc3cc(C(F)(F)P(=O)(O)O)ccc3[nH]2)C1 [Compound 35, ((2-(((5S,8S,10aR)-3-acetyl-8-(4-((benzyloxy)carbonyl)piperazine-1-carbonyl)-6-oxodecahydropyrrolo[1,2-a][1,5]diazocin-5-yl)carbamoyl)-1H-indol-5-yl)difluoromethyl)phosphonic acid]
14 | 0.3 to 3 | 1 to 10 | CNC(=O)[C@@H]1CC[C@@H]2CCN(C(C)=O)C[C@H](NC(=O)c3cc4cc(C(F)(F)P(=O)(O)O)ccc4[nH]3)C(=O)N21 [Compound 36, ((2-(((5S,8S,10aR)-3-acetyl-8-(methylcarbamoyl)-6-oxodecahydropyrrolo[1,2-a][1,5]diazocin-5-yl)carbamoyl)-1H-indol-5-yl)difluoromethyl)phosphonic acid]

Row | Compound | IC50 [1] [µM] | IC50 [2] [µM]
15 | CCC(=O)NCCCN(C)C(=O)[C@@H]1CC[C@@H]2CCN(C(C)=O)C[C@H](NC(=O)c3cc4cc(C(=O)P(=O)(O)O)ccc4[nH]3)C(=O)N21 [Compound 27, (2-(((5S,8S,10aR)-3-acetyl-8-(methyl(3-propionamidopropyl)carbamoyl)-6-oxodecahydropyrrolo[1,2-a][1,5]diazocin-5-yl)carbamoyl)-1H-indole-5-carbonyl)phosphonic acid] | 3 to 30 | 1 to 10
